Consider four molecules from US7393818B2 (priority 2003, dated 2008).

The target in test [1] is Scrapie (sheep) prion protein (Ovis aries, UniProt P23907).
In the next test the test system is prions. Particulars: reported in literature; cited from earlier work.

Sequence of Scrapie (sheep) prion protein (P23907 25-233 limits assumed): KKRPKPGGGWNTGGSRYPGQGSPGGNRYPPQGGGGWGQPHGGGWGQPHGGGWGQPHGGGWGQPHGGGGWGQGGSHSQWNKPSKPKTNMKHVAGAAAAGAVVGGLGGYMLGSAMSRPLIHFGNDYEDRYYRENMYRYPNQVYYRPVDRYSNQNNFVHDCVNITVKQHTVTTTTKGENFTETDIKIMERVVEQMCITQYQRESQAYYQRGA

In the case of `OO` [7% Hydrogen Peroxide, hydrogen peroxide], the “effect on the percentage of samples showing presence of prion” value in test [1] (in the period of the test (one hour soak)) is recorded as “no effect”. In test [1] (wires soaked for one hour), the “Percentage of Samples Tested where Prion (Scrapie) is Detected” value is 100%. Turning to `O=CCCCC=O` [Glutaraldehyde], in the test with prions, the effectiveness against prions entry is recorded as “ineffective”. Regarding `C1CO1` [ethylene oxide], the effectiveness against prions entry in the test on prions is reported as “ineffective”. Consider `OO` [hydrogen peroxide], for which the effectiveness against prions entry with prions was “ineffective”.
